The values below come from patent US10077288B2, “Hydroxystatin derivatives for the treatment of arthrosis” (Merck Patent GmbH, priority 2012, dated 2018).

The target in test [1] is T1, cathepsin D isolated from the human liver (Homo sapiens, UniProt P07339).
T1 construct: cathepsin D isolated from the human liver (Sigma-Aldrich); purchased Sigma-Aldrich; host or cells: human liver (tissue-derived, not recombinant)
The experiment in a line: In-vitro fluorescence assay for identification of cathepsin D inhibitors. The test is classed as biochemical. The conditions noted are these: human liver cathepsin D 1.4 nM, pH 5.5; read-out: CatD assay IC50-(M). Here is the method: EXAMPLE 4: IN-VITRO FLUORESCENCE ASSAY FOR IDENTIFICATION OF CATHEPSIN D INHIBITORS
In order to identify modulators of cathepsin D activity, a continuous enzymatic test was carried out with a synthetic peptide which carries a fluorescent group (MCA=(7-methoxycoumarin-4-yl)acetyl) which is quenched by energy transfer from a Dpn (2,4 dinitrophenyl) group on the same molecule, in Greiner 384-well nb microtitre plates. Cleavage of the peptidic substrate by cathepsin D causes an increase in the fluorescence intensity. In order to determine the efficacy of substances, the time-dependent increase in the fluorescence intensity in the presence of the substance was compared with the time-dependent increase in fluorescence in the absence of substances. The reference substance used was pepstatin A (Sigma-Aldrich). The substrate used was MCA-GKPILFFRLK(Dnp)d-R—NH2 (Enzo Life Sciences, Lörrach). The enzyme employed was cathepsin D isolated from the human liver (Sigma-Aldrich) in a final concentration of 1.4 nM. The test was carried out in 100 mM sodium acetate buffer, 1.25% (v/v) of DMSO, 0.25% (w/v) of Chaps, pH 5.5. 2 μl of each substance solution with serially diluted substance concentration were added to in each case 4 μl of cathepsin D solution and incubated at room temperature for 10 min. The reaction was started by addition of 2 μl of substrate solution (final concentration 5 μM). After carrying out a starting-point fluorescence measurement (excitation wavelength 340 nm/emission wavelength 450 nm) using an Envision multilabel reader (Perkin Elmer), the reaction was incubated at room temperature for 60 min. The amount of peptide fragment cleaved off during the reaction time was subsequently measured by determination of the increase in the fluorescence intensity at 450 nm (excitation wavelength 340 nm).

The target in the next test is T2, recombinant human renin (Homo sapiens, UniProt P00797).
T2 construct: purchased Proteos, Kalamazoo, Mich
T2 sequence (P00797 67-406): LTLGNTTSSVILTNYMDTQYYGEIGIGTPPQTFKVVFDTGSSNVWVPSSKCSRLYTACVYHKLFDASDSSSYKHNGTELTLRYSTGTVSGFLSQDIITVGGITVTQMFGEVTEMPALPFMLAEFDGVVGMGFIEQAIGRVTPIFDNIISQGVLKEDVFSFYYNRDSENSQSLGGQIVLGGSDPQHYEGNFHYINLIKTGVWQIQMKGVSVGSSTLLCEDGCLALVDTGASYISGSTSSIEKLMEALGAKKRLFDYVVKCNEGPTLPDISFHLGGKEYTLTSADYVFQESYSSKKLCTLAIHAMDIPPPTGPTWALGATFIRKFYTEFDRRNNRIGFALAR
The experiment in a line: In-vitro fluorescence assay for identification of renin-inhibitory activity. The test is classed as biochemical. The conditions noted are these: recombinant human renin 10 nM, FRET substrate 5 μM, pH 7.2; read-out: Renin selectivity IC50. As for the experimental part: EXAMPLE 8: IN-VITRO FLUORESCENCE ASSAY FOR IDENTIFICATION OF RENIN-INHIBITORY ACTIVITY
In order to identify modulators of renin activity, a continuous enzymatic test was carried out with a synthetic peptide which carries a fluorescent group Edans (=(5-(aminoethyl)aminonaphthalenesulfonate) which is quenched by energy transfer from a Dabcyl (4′-dimethylaminoazobenzene-4-carboxylate) group on the same molecule, in Greiner 384-well microtitre plates. Cleavage of the peptidic substrate by renin causes an increase in the fluorescence intensity. In order to determine the efficacy of substances, the time-dependent increase in the fluorescence intensity in the presence of the substance was compared with the time-dependent increase in fluorescence in the absence of substances. The reference substance used was renin inhibitor 2 (Z-Arg-Arg-Pro-Phe-His-Sta-Ile-His N-Boc-Lys methyl ester Z) (Sigma-Aldrich). The substrate used was renin FRET substrate I (DABCYL-g-Abu-Ile-His-Pro-Phe-His-Leu-Val-Ile-His-Thr-EDANS) (Anaspec, Fremont Calif.). The enzyme employed was recombinant human renin (Pro-teos, Kalamazoo, Mich.) in a final concentration of 10 nM. The test was carried out in 50 mM Mops buffer, 1.5% (v/v) of DMSO, 0.1% (w/v) of Igepal®, pH 7.2, 0.5% (w/v) of BSA. 2 μl of each substance solution with serially diluted substance concentration were added to in each case 4 μl of renin solution and incubated at room temperature for 15 min. The reaction was started by addition of 4 μl of substrate solution (final concentration 5 μM). After carrying out a starting-point fluorescence measurement (excitation wavelength 340 nm/emission wavelength 495 nm) using an Envision multilabel reader (Perkin Elmer), the reaction was incubated at 37° C. for 60 min. The amount of peptide fragment cleaved off during the reaction time was subsequently measured by determination of the increase in the fluorescence intensity at 495 nm (excitation wavelength 340 nm).
Result: all compounds measured have an IC50 of the renin selectivity of >30 μM (see Table 2 in Example 1).

T1 sequence (P07339 65-161 limits assumed): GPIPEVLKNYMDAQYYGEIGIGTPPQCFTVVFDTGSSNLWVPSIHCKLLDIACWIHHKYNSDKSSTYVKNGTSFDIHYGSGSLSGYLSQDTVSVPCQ
T1 sequence (P07339 169-412 limits assumed): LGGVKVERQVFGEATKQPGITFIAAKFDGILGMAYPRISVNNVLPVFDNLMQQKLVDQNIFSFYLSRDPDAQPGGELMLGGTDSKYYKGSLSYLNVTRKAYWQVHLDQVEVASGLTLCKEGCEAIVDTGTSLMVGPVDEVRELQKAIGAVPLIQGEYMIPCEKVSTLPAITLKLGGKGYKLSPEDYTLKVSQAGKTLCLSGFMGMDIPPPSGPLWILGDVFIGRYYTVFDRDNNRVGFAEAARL

One may read the IC50 as the concentration needed to halve the response being measured. Regarding `CC[C@H](C)[C@H](NC(=O)C[C@H](O)[C@H](Cc1ccccc1)NC(=O)[C@@H](NC(=O)CCc1ccccc1)C(C)C)C(=O)N[C@H](C(=O)OCc1ccccc1)C(C)C` [Compound 1, benzly (S)-2-((2S,3S)-2-{(3S,4S)-3-hydroxy-4-[(S)-3-methyl-2-(3-phenylpropionylamino)butyrylamino]-5-phenylpentanoylamino}-3-methylpentanoylamino)-3-methylbutyrate], the values for the half-maximal inhibitory concentration (IC50) (in test [1]; on recombinant human renin) were 7.9e-08 M and more than 30 µM, respectively.
Regarding `CC[C@H](C)[C@H](NC(=O)C[C@H](O)[C@H](Cc1ccccc1)NC(=O)[C@@H](NC(=O)C(C)(C)Oc1ccc2ccccc2c1)C(C)C)C(=O)N[C@H](C(=O)OCc1ccccc1)C(C)C` [Compound 3, benzly (S)-2-[(2S,3S)-2-((3S,4S)-3-hydroxy-4-{(S)-3-methyl-2-[2-methyl-2-(naphthalen-2-yloxy)propionylamino]butyrylamino}-5-phenylpentanoylamino)-3-methylpentanoylamino]-3-methylbutyrate], the IC50 in test [1] was 2.3e-07 M; at recombinant human renin, more than 30 µM.
The like results for `CC[C@H](C)[C@H](NC(=O)C[C@H](O)[C@H](Cc1ccccc1)NC(=O)[C@@H](NC(=O)Cc1ccc(OC)cc1)C(C)C)C(=O)N[C@H](C(=O)O)C(C)C` [Compound 15, (S)-2-[(2S,3S)-2-((3S,4S)-3-hydroxy-4-{(S)-2-[2-(4-methoxyphenyl)-acetylamino]-3-methylbutyrylamino}-5-phenylpentanoylamino)-3-methylpentanoylamino]-3-methylbutyric acid] were, in that order, 3.9e-08 M and more than 30 µM.
The like results for `CC[C@H](C)[C@H](NC(=O)C[C@H](O)[C@H](Cc1ccccc1)NC(=O)[C@@H](NC(=O)Cc1ccccc1OC)C(C)C)C(=O)N[C@H](C(=O)O)C(C)C` [Compound 28, (S)-2-[(2S,3S)-2-((3S,4S)-3-hydroxy-4-{(S)-2-[2-(2-methoxyphenyl)-acetylamino]-3-methylbutyrylamino}-5-phenylpentanoylamino)-3-methylpentanoylamino]-3-methylbutyric acid] were, in that order, 1.6e-07 M and more than 30 µM.
In the case of `CC[C@H](C)[C@H](NC(=O)C[C@H](O)[C@H](Cc1ccccc1)NC(=O)[C@@H](NC(=O)[C@H](CC(C)C)NC(=O)CC(C)C)C(C)C)C(=O)NC1CCCC1` [Compound 46, N-((1S,2S)-1-cyclopentylcarbamoyl-2-methylbutyl)-(2S,5S)-3-hydroxy-4-{(S)-3-methyl-2-[(S)-4-methyl-2-(3-methylbutyrylamino)-pentanoylamino]butyrylamino}-5-phenylpentanamide], the IC50 in test [1] is 1.8e-09 M.
Same read-out and setting: under `CCC(CC)NC(=O)[C@@H](NC(=O)C[C@H](O)[C@H](Cc1ccccc1)NC(=O)[C@@H](NC(=O)[C@H](CC(C)C)NC(=O)CC(C)C)C(C)C)C(C)C` [Compound 47, N—[(S)-1-(1-ethylpropylcarbamoyl)-2-methylpropyl]-(3S,4S)-3-hydroxy-4-{(S)-3-methyl-2-[(S)-4-methyl-2-(3-methylbutyrylamino)-pentanoylamino]butyrylamino}-5-phenylpentanamide] stands 6.5e-10 M.
Same read-out and setting: under `CCC[C@H](NC(=O)C[C@H](O)[C@H](Cc1ccccc1)NC(=O)[C@@H](NC(=O)[C@H](CC(C)C)NC(=O)CC(C)C)C(C)C)C(=O)NC(CC)CC` [Compound 48, N—[(S)-1-(1-ethylpropylcarbamoyl)butyl]-(3S,4S)-3-hydroxy-4-{(S)-3-methyl-2-[(S)-4-methyl-2-(3-methylbutyrylamino)pentanoylamino]-butyrylamino}-5-phenylpentanamide] stands 2.6e-10 M; under `CC[C@H](C)[C@H](NC(=O)C[C@H](O)[C@H](Cc1ccccc1)NC(=O)[C@@H](NC(=O)[C@H](CC(C)C)NC(=O)CC(C)C)C(C)C)C(=O)NC(C)(C)CCO` [Compound 49, N-[(1S,2S)-1-(3-hydroxy-1,1-dimethylpropylcarbamoyl)-2-methylbutyl]-(3S,4S)-3-hydroxy-4-{(S)-3-methyl-2-[(S)-4-methyl-2-(3-methylbutyrylamino)pentanoylamino]butyrylamino}-5-phenylpentanamide], 2.1e-10 M.
